In US5635161A, “Aerosol drug formulations containing vegetable oils” (priority 1995, dated 1997):
Entries after “also recorded” stand apart in the source; their conditions may differ. Each block holds one compound with its values, some of them ahead of it.

Experiments:
[1] = Visual dispersion quality (physical stability) of MDI formulations in HFA-134a after 24 hours; assay type: physicochemical; design: key: Poor: Phase separation; top phase clear, bottom phase containing solids; Fair: Partial phase separation; cloudiness in the top phase; Good: Grainy appearance; no phase separation; Clear solution
Procedure: MDI formulations for performance testing were prepared in the following manner: For each test formulation, about 5 mL (or 7.4 grams) of glass beads were placed into a suitable glass aerosol container (vial), along with 100 mg to 250 mg drug and a vegetable oil in the amounts needed to produce the desired final concentrations. All vegetable oils used in the following examples were purchased from Sigma® Chemical Company (St. Louis, Mo., 63178). The vials were crimped shut with valves having delivery values (volumes per spray) of 50 μL, and then charged with 10 mL of HFA-134a propellant. The filled vials were then shaken for 24 hours at about 50 cycles/minute to mill and disperse the drug. […] The formulations were then used in the in vitro or in vivo studys described below.
A determination of the effect of vegetable oils on the physical stability of several MDI formulations prepared with HFA-134a was conducted as follows: A vegetable oil was combined either with (1) leuprolide acetate (Table 2a) or (2) 5-LO inhibitor #1 (Table 2b) in the amounts indicated and placed in appropriate transparent aerosol containers (vials). […] The dispersion quality in each preparation was evaluated visually after 24 hours using the following criteria: […]

[2] = Bioavailability / plasma pharmacokinetics after inhalation (MDI) versus i.v. in tracheostomized dogs; assay type: in vivo; conditions: dog
Procedure: All quantitative analyses for 5-LO inhibitor #1 formulations were performed by high pressure liquid chromatography (HPLC). The mobile phase composition was 30% v/v tetrahydrofuran in water with 0.128% w/v tetramethylammonium perchlorate and 0.075% v/v trifluoroacetic acid. A Regis Little Champ™ C-18, 4.6×50 mm column was used. The mobile phase flow rate was maintained at 1.0 milliliters/minute (mL/min). Detection wavelength was set at 282 nanometers (nm) and typical injection volumes were between 25 to 50 microliters (μL). Under these conditions, the standard curve for the parent drug was linear between the range of 3 to 75 micrograms/milliliter (μg/mL) (r^2 ≥0.990), with a run time of about 8 minutes.
Using a test preparation containing 25 mg/mL 5-LO inhibitor #1 and 2.5 mg/mL olive oil in HFC-134a propellant, pulmonary absorption and in vivo distribution (i.e. bioavailibility factors) were assessed in four tracheostomized dogs (Marshall Farms, N.Y.) weighing about 10 kilograms (kg) each. Four sprays, delivering 1.25 mg of active 5-LO inhibitor #1/spray, were delivered to the trachea of each dog, resulting in a total drug dose of about 0.5 mg/kg. Blood samples were collected at 0.25, 0.5, 1, 2, 3.5, 5, 7, 9, 12 and 24 hours after dosing and the plasma assayed for drug concentration using the HPLC method described in Example 1A above.

[3] = as above; conditions: dog, in vivo
[4] = in vivo, inhaled or intranasal, 0.5 mg/kg
[5] = in vivo, inhaled or intranasal, 0.5 mg/kg, Plasma concentration (5-LO Inhibitor Levels)
[6] = inhaled or intranasal, 0.5 mg/kg, Plasma concentration (5-LO Inhibitor Levels)
[7] = iv, 0.5 mg/kg, Plasma concentration (5-LO Inhibitor Levels)

- Dispersion Quality (measured after 24 Hours) ([1]; Table 2b, 5-LO inhibitor #1 formulations in HFA-134a): Poor
- Cmax [2, 4]: 150 ± 30 ng/mL
- Tmax [2, 4]: 10.4 ± 9.23 h
- Plasma concentration (5-LO Inhibitor Levels) ([2]; in vivo, inhaled or intranasal, 0.5 mg/kg, 1 h): 30 ± 20 ng/mL
- concentration at 0.5 h [2, 5]: 10 ± 10 ng/mL
- concentration at 1 h [2, 5]: 30 ng/mL
- concentration at 7 h [2, 5]: 120 ± 70 ng/mL
- concentration at 9 h [2, 5]: 90 ± 50 ng/mL
- concentration at 24 h [2, 5]: 50 ± 60 ng/mL
- concentration at 12 h ([2]; in vivo, inhaled or intranasal, 0.5 mg/kg, drug levels maintained): ≥ 70 ng/mL
- duration of drug absorption after dosing [3]: 6 to 8 h
- AUC(0-t) at 24 h ([3]; inhaled or intranasal, 0.5 mg/kg): 1600 ± 400 ng·h/mL
- bioavailability ([3]; inhaled or intranasal, 0.5 mg/kg, Bioavailability (absolute lung bioavailability versus i.v.)): ~64%
- concentration at 2 h [3, 6]: 40 ± 30 ng/mL
- concentration at 3.5 h [3, 6]: 90 ± 60 ng/mL
- concentration at 5 h [3, 6]: 80 ± 60 ng/mL
- concentration at 12 h [3, 6]: 70 ± 40 ng/mL
- AUC(0-t) at 24 h ([3]; iv, 0.5 mg/kg): 5060 ± 1040 ng·h/mL
- Plasma concentration (5-LO Inhibitor Levels) ([3]; iv, 0.5 mg/kg, 0 min): 0 ng/mL
- Plasma concentration (5-LO Inhibitor Levels) ([3]; iv, 0.5 mg/kg, 0.25 h): 590 ± 50 ng/mL
- Plasma concentration (5-LO Inhibitor Levels) ([3]; iv, 0.5 mg/kg, 12 h): 180 ± 60 ng/mL
- concentration at 0.08 h [3, 7]: 630 ± 60 ng/mL
- concentration at 0.25 h [3, 7]: ~600 ng/mL
- concentration at 0.5 h [3, 7]: 600 ± 40 ng/mL
- concentration at 1 h [3, 7]: 520 ± 40 ng/mL
- concentration at 2 h [3, 7]: 480 ± 50 ng/mL
- concentration at 4 h [3, 7]: 370 ± 60 ng/mL
- concentration at 6 h [3, 7]: 300 ± 50 ng/mL
- concentration at 8 h [3, 7]: 230 ± 50 ng/mL
- concentration at 12 h [3, 7]: ~200 ng/mL
- concentration at 24 h [3, 7]: 70 ± 20 ng/mL
Compound: CC(C#Cc1ccc(Cc2ccc(F)cc2)s1)N(O)C(N)=O (stereo not drawn) [5-LO inhibitor #1, N-[3-[5-(4-fluorophenylmethyl)-2-thienyl]-1-methyl-2-propynyl]-N-hydroxyurea]
- onset and absorption from the lungs (in words) ([2]; inhalation formulation): fast onset of drug absorption; also recorded: rapid onset and prolonged absorption of drug from the lungs

Compound: CCNC(=O)[C@@H]1CCCN1C(=O)[C@H](CCCNC(=N)N)NC(=O)[C@H](CC(C)C)NC(=O)[C@@H](CC(C)C)NC(=O)[C@H](Cc1ccc(O)cc1)NC(=O)[C@H](CO)NC(=O)[C@H](Cc1c[nH]c2ccccc12)NC(=O)[C@H](Cc1c[nH]cn1)NC(=O)[C@@H]1CCC(=O)N1 [Leuprolide Acetate, leuprolide acetate, reference compound]
- Dispersion Quality (measured after 24 Hours) ([1]; Table 2a, leuprolide acetate formulations (or excipients alone) in HFA-134a): Poor
